Data published in patent US20230183592A1, “[…] ORGANO[…] AS NON-[…]-WEAR AGENTS” (priority 2020, published 2023).
Where two headings read alike, the source gives them in different places.

What was measured:
[1] = target: T1, human erythrocyte AChE (hAChE) (Homo sapiens, UniProt P22303); test: biochemical; assay type: biochemical
T1 construct: The human erythrocyte AChE (hAChE, aqueous buffer solution); purchased Sigma Aldrich; host or cells: human erythrocytes (natural source)
Method: (§1) In the extent that the toxic activity of TCP especially involves its action on cholinesterases, the effect of the compounds used according to the invention, as well as comparative compounds, on two cholinesterases was studied. The required concentration values of each compound to inhibit 50% of the activity of two cholinesterases were measured.
(§2) The acetylthiocholine and butyrylthiocholine iodide, and 5,5-dithiobis (2-nitrobenzoic) acid (DTNB) were purchased from Sigma Aldrich (Steinheim, Germany).
(§3) In the procedure, 100 μL of 0.3 mM DTNB dissolved in phosphate buffer, pH 7.4, were added in 96-well plates, followed by 50 μL solution of the test compound and 50 μL enzyme (final 0.05 U). After 5 minutes of pre-incubation at 25° C., the reaction was initiated by injecting 50 μL of 0.1 mM acetyl or butyryl thiocholine iodide solution. The acetyl or butyryl thiocholine hydrolysis was followed by the formation of yellow 5-thio 2-nitrobenzoate anion as the product of the reaction of DTNB with the thiocholine released by the enzymatic hydrolysis of the acetyl or butyryl thiocholine, at a wavelength of 412 nm, using a microplate reader (Synergy 2, Biotek, Colmar, France). The compounds to be tested were dissolved to 5×10^−3M in analytical grade DMSO. Donepezil or tacrine were used as reference standards. The absorption increase rate at 412 nm was determined 4 minutes after the addition of the acetyl or butyryl thiocholine iodide solution. The tests were carried out with a blank containing all the compounds except the acetyl or butyryl thiocholine in order to take into account non-enzymatic reactions.
(§4) The percentage of inhibition due to the presence of the test compounds was calculated using the following expression: […]
(§5) wherein vi is the rate calculated in the presence of the inhibitor, and v0 is the enzymatic activity.
(§6) All the experiments were carried out in n=3.

[2] = target: T2, BuChE from equine serum (eqBuChE) (Equus caballus, UniProt P81908); test: biochemical; assay type: biochemical
T2 construct: The BuChE freeze-dried from equine serum (eqBuChE, Sigma Aldrich); purchased Sigma Aldrich; host or cells: equine serum (natural source)
Method: as §1, §2, §3, §4, §5, §6

[3] = sum of five 0/1 risk factors, 0 (lack of risk) to 5 (very high multiple risk)
Excerpt: The last column corresponds to a risk level score for the safety of these molecules for use in oils such as turbine oils and their alleged cabin toxicity. […] A 0 value indicates a lack of risk, and a 5 value indicates a very high multiple risk. For each risk, a factor 0 or 1 is assigned based on whether the value is above or below a threshold.

[4] = European Chemicals Agency website; cited from earlier work
[5] = equine serum BuChE, Ellman method, 5 min pre-incubation at 25° C., n=3

T2 sequence (P81908 whole entry): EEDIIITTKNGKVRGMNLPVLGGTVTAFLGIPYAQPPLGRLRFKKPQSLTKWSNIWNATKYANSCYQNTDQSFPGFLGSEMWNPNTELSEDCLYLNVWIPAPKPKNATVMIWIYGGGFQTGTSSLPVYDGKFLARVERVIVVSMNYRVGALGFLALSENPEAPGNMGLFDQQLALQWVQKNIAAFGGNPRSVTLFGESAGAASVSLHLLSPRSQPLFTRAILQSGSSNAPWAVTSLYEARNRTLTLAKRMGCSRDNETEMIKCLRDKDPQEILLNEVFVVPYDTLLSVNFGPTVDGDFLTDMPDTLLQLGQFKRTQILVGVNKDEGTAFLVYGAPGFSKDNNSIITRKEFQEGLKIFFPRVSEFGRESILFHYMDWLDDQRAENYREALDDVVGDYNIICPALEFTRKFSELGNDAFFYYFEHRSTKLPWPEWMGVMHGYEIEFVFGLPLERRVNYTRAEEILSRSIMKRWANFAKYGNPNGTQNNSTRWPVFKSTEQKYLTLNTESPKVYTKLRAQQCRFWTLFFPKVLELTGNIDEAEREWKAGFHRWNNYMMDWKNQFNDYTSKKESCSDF
T1 sequence (P22303 32-617 isoform P22303-2 limits assumed): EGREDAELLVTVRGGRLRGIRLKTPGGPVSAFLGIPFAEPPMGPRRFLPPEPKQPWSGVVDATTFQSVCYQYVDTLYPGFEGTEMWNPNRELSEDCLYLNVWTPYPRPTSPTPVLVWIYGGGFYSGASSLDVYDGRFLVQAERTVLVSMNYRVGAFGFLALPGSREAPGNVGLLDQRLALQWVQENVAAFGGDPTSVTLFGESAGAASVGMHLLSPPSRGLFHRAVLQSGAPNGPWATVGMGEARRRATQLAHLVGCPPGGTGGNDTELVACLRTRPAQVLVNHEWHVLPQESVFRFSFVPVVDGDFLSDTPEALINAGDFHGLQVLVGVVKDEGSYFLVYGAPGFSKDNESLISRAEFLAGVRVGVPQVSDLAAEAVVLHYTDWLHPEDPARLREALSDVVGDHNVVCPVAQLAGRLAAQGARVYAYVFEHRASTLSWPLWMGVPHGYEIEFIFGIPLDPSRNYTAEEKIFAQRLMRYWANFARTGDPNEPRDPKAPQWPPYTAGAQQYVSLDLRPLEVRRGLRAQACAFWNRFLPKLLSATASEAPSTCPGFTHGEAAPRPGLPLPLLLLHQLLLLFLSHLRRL

Molecule	Risk level [3]	ECHA's official data [4]	other results
CC(C)CCCCCCCOP(=O)(Oc1ccccc1)Oc1ccccc1 [Compound 1, isodecyl diphenylphosphate]	0		IC50 [1]: 38.4 µM; IC50 [2]: 93 µM
CCCCC(CC)COP(=O)(Oc1ccccc1)Oc1ccccc1 (stereo not shown) [Compound A, 2-ethylhexyl diphenylphosphate]	4	No CMR, no acute toxicity	
Cc1ccccc1OP(=O)(Oc1ccccc1C)Oc1ccccc1C [Compound B, Tri(ortho-cresyl)phosphate]	5		
Cc1cccc(OP(=O)(Oc2cccc(C)c2)Oc2cccc(C)c2)c1 [Compound C, Tri(meta-cresyl)phosphate]	5		
Cc1ccc(OP(=O)(Oc2ccc(C)cc2)Oc2ccc(C)cc2)cc1 [Compound D, Tri(para-cresyl)phosphate]	3		
O=P(Oc1c(F)cccc1F)(Oc1c(F)cccc1F)Oc1c(F)cccc1F [Compound F, Tri(2,6-difluorophenyl)phosphate]	≥3		
CC(C)(C)c1ccc(OP(=O)(Oc2ccccc2)Oc2ccc(C(C)(C)C)cc2)cc1 [Compound H, di(p-tertbutylphenyl)phenylphosphate]	3		
O=P(Oc1ccccc1)(Oc1ccccc1)Oc1ccccc1 [Compound I1, tri phenyl phosphate]	4	No CMR, no acute toxicity	IC50 [1]: 33.1 µM; IC50 [2]: 42.9 µM
CC(C)(C)c1ccc(OP(=O)(Oc2ccc(C(C)(C)C)cc2)Oc2ccc(C(C)(C)C)cc2)cc1 [Compound I2, Tri(p-tert-butylphenyl)phosphate]	3		
NP(=O)(Oc1ccccc1)Oc1ccccc1 [Compound K, Diphenyl phosphoroamidate]	4		
CC(C)COP(=O)(OCC(C)C)OCC(C)C [Compound L, Tri(isobutyl)phosphate]	4	No CMR, no acute toxicity	
CCCCC(CC)COP(=O)(OCC(CC)CCCC)OCC(CC)CCCC (stereo not shown) [Compound M, Tris(2-ethylhexyl)phosphate]	≥2	No CMR, no acute toxicity	IC50 ([1]; human erythrocyte AChE, Ellman method, 5 min pre-incubation at 25° C., n=3, read-out: IC50 hAChE (converted)): 28.1 µM; IC50 ([2]; equine serum BuChE, Ellman method, 5 min pre-incubation at 25° C., n=3, read-out: IC50 eqBuChE (converted)): 279 µM
CCCCOC(=O)CC(SP(=S)(OCC(CC)CCCC)OCC(CC)CCCC)C(=O)OCCCC (stereo not shown) [Compound N, Dibutyl [[bis[(2-ethylhexyl)oxy]phosphinothioyl]thio]succinate]	≥1	No CMR, no acute toxicity	IC50 [1]: 33.1 µM; IC50 [2]: 19 µM
Saligenin cresyl phosphate [Compound J]	4		IC50 eqBuChE [2, 5]: 0.7 mg/L
Tri(4-isopropylbenzoate)phosphate [Compound G]	2		
Tricresyl phosphate [Compound P]	4	PBT* Reprotoxic	IC50 hAChE ([1]; human erythrocyte AChE, Ellman method, 5 min pre-incubation at 25° C., n=3): 16.9 mg/L; IC50 eqBuChE [2, 5]: 0.7 mg/L
Trixylyl phosphate [Compound E]	≥2	PBT* Reprotoxic	
isododecyl diphenylphosphate [Compound 4]	0		
isononyl diphenylphosphate [Compound Q]	4		
